In experiment [1] the target is 5-hydroxytryptamine 2A receptor (HTR2A) (Mus musculus, UniProt P35363). It is filed as binding.
Experiment [2] has as its target HTR2A-A242S-EGFP-CT (humanized 5-hydroxytryptamine 2A receptor) (Mus musculus, UniProt P35363, A242S). Kind of experiment: radioligand saturation binding on cortical crude membranes.

This note sets out measurements from publication PMC10557740 (bioRxiv, 2023).

Chain of 5-hydroxytryptamine 2A receptor (HTR2A) (P35363 whole entry): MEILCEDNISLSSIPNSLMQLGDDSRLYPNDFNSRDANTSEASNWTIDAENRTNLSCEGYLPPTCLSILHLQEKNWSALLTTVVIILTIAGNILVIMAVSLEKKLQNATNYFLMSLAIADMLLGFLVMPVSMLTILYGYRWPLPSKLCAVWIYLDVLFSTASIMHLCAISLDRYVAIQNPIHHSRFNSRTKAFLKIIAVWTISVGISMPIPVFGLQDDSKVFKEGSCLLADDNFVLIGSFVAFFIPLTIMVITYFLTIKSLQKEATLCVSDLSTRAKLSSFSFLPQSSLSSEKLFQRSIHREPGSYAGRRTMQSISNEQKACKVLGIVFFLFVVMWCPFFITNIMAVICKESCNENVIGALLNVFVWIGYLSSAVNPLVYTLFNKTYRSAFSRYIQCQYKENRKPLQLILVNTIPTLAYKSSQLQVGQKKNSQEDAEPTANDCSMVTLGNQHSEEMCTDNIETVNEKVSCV
Chain of HTR2A-A242S-EGFP-CT (humanized 5-hydroxytryptamine 2A receptor) (P35363 1-452 A242S, other chains not shown): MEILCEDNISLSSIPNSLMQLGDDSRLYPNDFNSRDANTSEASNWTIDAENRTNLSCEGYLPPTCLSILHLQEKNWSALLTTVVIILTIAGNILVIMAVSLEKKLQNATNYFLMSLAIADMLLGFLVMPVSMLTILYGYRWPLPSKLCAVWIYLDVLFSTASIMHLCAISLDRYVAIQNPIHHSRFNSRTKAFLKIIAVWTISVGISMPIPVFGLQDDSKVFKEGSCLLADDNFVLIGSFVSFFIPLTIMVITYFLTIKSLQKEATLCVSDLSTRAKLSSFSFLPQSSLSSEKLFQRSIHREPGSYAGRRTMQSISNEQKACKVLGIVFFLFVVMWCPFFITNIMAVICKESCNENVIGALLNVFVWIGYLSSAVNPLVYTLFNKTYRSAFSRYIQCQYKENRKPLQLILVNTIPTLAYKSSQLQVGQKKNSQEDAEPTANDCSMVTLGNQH

The term Kd denotes a measure of binding affinity in units of concentration. On to `O=C(c1ccc(F)cc1)C1CCN(CCn2c(=O)[nH]c3ccccc3c2=O)CC1` [[3H]-ketanserin], for which the Kd in experiment [1] was found to be 1.09 ± 0.324 nM; in experiment [2], 2.38 ± 1.48 nM.
